We go through two molecules from patent US4745124A, “Orally effective anti-hypertensive agents” (priority 1983, dated 1988).

The subject of data set [1] is ACE from guinea pig or human urine. As to the kind of experiment: inhibition of ACE prepared from guinea pig or human urine, [3H]-HipGlyGly substrate. It counts as biochemical. The following applies: SQ 14,225 at 0.1 μM. Here is the method:
B. In certain experiments, as identified, an alternative assay system was employed using [^3 H]-HipGlyGly as substrate as described by Ryan, J. W., et al., Biochem. J. 167 501 (1977).
Fresh urine was ultrafiltered using a membrane (PTGC 142 05, Millipore Corp., Bedford, MA, U.S.A.) with a 10,000 MW retention limit. Typically, 500 ml of urine was ultrafiltered to approx. 15 ml and then the concentrated proteins were washed with water and then applied to a column (2.5×110 cm) of Sephacryl S-200, Trademark, Pharmacia Chemical Co., Uppsala, Sweden, previously equilibrated with 0.05M TrisHCl buffer, pH 8.0, with 0.5M NaCl. Under these conditions, ACE was eluted in two peaks; one, the major peak, was eluted just after the void volume (Ve /Vo =1.21) and the second (up to 20% of the total activity) at Ve /Vo =1.41. Enzyme activity was measured using [^3 H]-HipGlyGly as described in Example 1B. […] The activities were inhibited to a maximum of 84% by antibody to guinea pig lung ACE. The enzyme used herein was that of the first peak to emerge from the Sepacryl column. The enzyme preparation was concentrated about 10-fold by ultrafiltration. In one such experiment, the concentrated urinary protein solution obtained by ultrafiltration contained 2,400 m units of enzyme at 8.0 m units/mg of protein, and peak 1 from the Sephacryl column contained 1,100 m units at 814 m units/mg of protein. […]

The nature of data set [2]: stability of aqueous solution of SQ 14225 on standing. It counts as physicochemical. Particulars: 1 mg per ml, pH about 8, as little as 30 minutes.
The conditions of data set [3]: oral; most patients; cited from earlier work.
A short description of data set [4]: resistance of thioester compounds to alkaline hydrolysis. It counts as physicochemical. An excerpt:
Therefore the observed inhibitory effects cannot be accounted for by postulating spontaneous hydrolysis of the thioester bond to regenerate the free sulfhydryl group.

Data set [5] has as its system pressor effects of angiotensin I. As to the kind of experiment: oral effectiveness: blood pressure response to angiotensin I in anesthetized rats. It counts as in vivo, rat. The method, boiled down: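 Fasted rats under pentobarbital anesthesia (50-60 mg/kg i.p.), ventilated, with carotid arterial pressure recorded; i.v. angiotensin I (80 ng, 160 ng or 400 ng/kg) or angiotensin II (80 ng) challenges repeated at timed intervals after oral gavage of compound (2-20 mg/kg, 10 mg, 17 or 23 μmol/kg) in aqueous NaHCO3.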

Data set [6] deals with pressor effects of angiotensin II. As to the kind of experiment: oral: blood pressure response to angiotensin II in anesthetized rats. The class given is in vivo, rat. The following applies: 12 or 20 mg/kg. The procedure:
Rats (210-290 g body weight) were fasted overnight and then anesthetized with intraperitoneal pentobarbital, 50-60 mg/kg. Tracheostomy was performed and the animals were ventilated mechanically. A cannula was inserted into a femoral vein for injection of angiotensin I or II, and a second cannula was inserted into a common carotid artery for direct measurement of arterial blood pressure. Heparin, 1,000 units, was injected via the femoral vein to prevent coagulation. Blood pressure was measured with a pressure transducer connected to a polygraph. The rats were injected with 80 ng of angiotensin I or angiotensin II in 20 μl of 0.9 g % NaCl; an amount of antiotensin I or II sufficient to raise mean arterial blood pressure by 27-40 mm Hg. After the responsiveness of a given rat to angiotensins I and II was established, compound (I), at 2 or 5 mg/kg (drug dissolved in 0.5 ml of H2 O plus 10 μl of 1N NaHCO3), was given via a stomach tube. At timed intervals, the effects of 80 ng of angiotensin I or angiotensin II on mean arterial blood pressure were tested.
Rats were prepared as described in Example 222. Compound (II) [N-benzoyl-L-phenylalanylthiopropanoyl)-L-proline] was given orally, via a stomach tube, at a dose of 12 mg/kg or 20 mg/kg. Compound (II) was dissolved in 0.5 ml of H2 O plus 10 μl of 1N NaHCO3. […]

Data set [7] concerns the target T1, angiotensin converting enzyme (human urinary ACE) (Homo sapiens, UniProt P12821).
T1 construct: ACE purified from human urine; from tissue; host or cells: human urine (ultrafiltration and Sephacryl S-200, first eluting peak; prepared as in Ryan et al., Tissue and Cell 10, 555 (1978))
As to the kind of experiment: ACE activity assay, I50 (Example 216A). The class given is biochemical. Particulars: human urinary ACE; Benzoyl-GlyHisLeu 1×10^-4 M; Hepes pH 8.0; 37° C; in vitro; read-out: I50.

“And” between values parts separate entries of the source, which are not always exact repeats. Equal entries are not always repeated.

T1 sequence (P12821 30-1232 limits assumed): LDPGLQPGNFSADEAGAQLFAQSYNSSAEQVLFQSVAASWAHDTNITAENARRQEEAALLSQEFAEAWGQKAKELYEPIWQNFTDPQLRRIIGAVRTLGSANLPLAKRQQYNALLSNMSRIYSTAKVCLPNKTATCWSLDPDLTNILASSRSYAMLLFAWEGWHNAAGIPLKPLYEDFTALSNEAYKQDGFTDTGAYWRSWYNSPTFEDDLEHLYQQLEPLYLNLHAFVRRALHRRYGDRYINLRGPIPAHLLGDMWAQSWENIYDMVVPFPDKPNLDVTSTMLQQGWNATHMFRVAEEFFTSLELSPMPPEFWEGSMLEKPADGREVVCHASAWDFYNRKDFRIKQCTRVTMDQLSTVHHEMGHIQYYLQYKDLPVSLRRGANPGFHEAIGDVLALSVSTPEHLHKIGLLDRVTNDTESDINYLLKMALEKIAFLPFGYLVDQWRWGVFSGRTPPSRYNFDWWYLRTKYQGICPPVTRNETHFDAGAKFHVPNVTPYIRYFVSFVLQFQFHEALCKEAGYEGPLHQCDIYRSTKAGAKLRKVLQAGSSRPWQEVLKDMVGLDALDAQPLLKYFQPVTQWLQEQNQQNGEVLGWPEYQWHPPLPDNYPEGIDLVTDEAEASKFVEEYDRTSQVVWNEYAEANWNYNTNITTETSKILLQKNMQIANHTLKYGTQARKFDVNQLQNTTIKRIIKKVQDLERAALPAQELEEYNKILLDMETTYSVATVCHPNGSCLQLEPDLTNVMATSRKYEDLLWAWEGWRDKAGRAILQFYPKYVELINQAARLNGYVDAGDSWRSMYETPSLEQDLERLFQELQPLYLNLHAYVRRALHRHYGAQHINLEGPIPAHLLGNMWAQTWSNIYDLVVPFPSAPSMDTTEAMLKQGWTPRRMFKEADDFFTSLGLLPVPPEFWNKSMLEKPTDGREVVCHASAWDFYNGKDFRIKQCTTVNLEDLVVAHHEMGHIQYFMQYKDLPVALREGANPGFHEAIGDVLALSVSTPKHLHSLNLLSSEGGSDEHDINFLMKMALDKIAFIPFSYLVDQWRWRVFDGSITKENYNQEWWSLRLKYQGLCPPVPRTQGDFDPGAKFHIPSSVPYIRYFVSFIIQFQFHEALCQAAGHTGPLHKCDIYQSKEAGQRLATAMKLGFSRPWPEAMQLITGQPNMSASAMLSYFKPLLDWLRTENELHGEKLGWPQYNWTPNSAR

On to `C[C@H](CS)C(=O)N1CCCC1C(=O)O` (stereo in doubt) [SQ 14225, D-3-mercapto-2-methylpropanoyl-L-proline], for which, in data set [1], the “inhibition of activities of both ACE peaks” value is reported as “inhibited completely”. Besides, in data set [2], the “activity of aqueous solution on standing” value is recorded as “substantially less active”. Also, in data set [3], the “stability in normal gastric and intestinal environments” value was “sufficiently stable”.

Turning to `CC(SC(=O)C(Cc1ccccc1)NC(=O)c1ccccc1)C(=O)N1CCC[C@H]1C(=O)O` (stereo partly drawn) [Compound (II), 2-benzoylphenylalanylthiopropanoyl-L-proline], the “resistance to alkaline hydrolysis” value in data set [4] is reported as “surprisingly resistant to alkaline hydrolysis”. The “Blood Pressure Response to 80 ng of Angiotensin I” value (“Blood Pressure Response to 80 ng” for short) in data set [5] (oral 12 mg/kg, 6 min, Rat 1) is listed as 109 % of control; in data set [5] (oral 12 mg/kg, 12 min, Rat 1) it was 80 % of control; in data set [5] (oral 12 mg/kg, 30 min, Rat 1), 51 % of control; in data set [5] (oral 12 mg/kg, 47 min, Rat 1), 71 % of control; in data set [5] (oral 12 mg/kg, 56 min, Rat 1), 69 % of control; in data set [5] (oral 12 mg/kg, 76 min, Rat 1), 63 % of control. For the same molecule, the “Blood Pressure Response to 80 ng” value in data set [5] (oral 12 mg/kg, 150 min, Rat 1) is reported as 49 % of control; in data set [5] (oral 12 mg/kg, 158 min, Rat 1), 57 % of control; in data set [5] (oral 20 mg/kg, 6 min, Rat 2) it was 91 % of control; in data set [5] (oral 20 mg/kg, 12 min, Rat 2) it was 70 % of control; in data set [5] (oral 20 mg/kg, 23 min, Rat 2), 76 % of control; in data set [5] (oral 20 mg/kg, 30 min, Rat 2), 76 % of control. Also, the “Blood Pressure Response to 80 ng” value in data set [5] (oral 20 mg/kg, 56 min, Rat 2) is on record as 55 % of control; in data set [5] (oral 20 mg/kg, 76 min, Rat 2) it was 40 % of control; in data set [5] (oral 20 mg/kg, 95 min, Rat 2) it was 40 % of control; in data set [5] (oral 20 mg/kg, 142 min, Rat 2), 76 % of control; in data set [5] (oral 20 mg/kg, 158 min, Rat 2), 76 % of control; in data set [5] (oral 20 mg/kg, 166 min, Rat 2) it was 76 % of control. Also, the “Blood Pressure Response to 80 ng” value in data set [5] (oral 20 mg/kg, 176 min, Rat 2) is 76 % of control. The “pressor effects of angiotensin II (specificity)” value in data set [6] is “did not inhibit”. Moreover, the IC50 in data set [7] is 70 nM and 40 nM.
